Experiments:
[1] = target: T1, catalytic domain of human Bub1 (amino acids 704-1085) (Homo sapiens, UniProt O43683); test: Bub1 kinase assay (TR-FRET); format: biochemical; settings: 10 μM ATP, 1 μM peptide substrate, median, read-out: Biological Assay 1: Bub1 kinase assay median IC50
T1 construct: catalytic domain of human Bub1 (amino acids 704-1085); His6 (N); made in house; host or cells: Hi5 insect cells
Text: Bub1-inhibitory activities of compounds described in the present invention were quantified using a time-resolved fluorescence energy transfer (TR-FRET) kinase assay which measures phosphorylation of the synthetic peptide Biotin-Ahx-VLLPKKSFAEPG (C-terminus in amide form), purchased from e.g. Biosyntan (Berlin, Germany) by the (recombinant) catalytic domain of human Bub1 (amino acids 704-1085), expressed in Hi5 insect cells with an N-terminal His6-tag and purified by affinity- (Ni-NTA) and size exclusion chromatography.
In a typical assay 11 different concentrations of each compound (0.1 nM, 0.33 nM, 1.1 nM, 3.8 nM, 13 nM, 44 nM, 0.15 μM, 0.51 μM, 1.7 μM, 5.9 μM and 20 μM) were tested in duplicate within the same microtiter plate. To this end, 100-fold concentrated compound solutions (in DMSO) were previously prepared by serial dilution (1:3.4) of 2 mM stocks in a clear low volume 384-well source microtiter plate (Greiner Bio-One, Frickenhausen, Germany), from which 50 nL of compounds were transferred into a black low volume test microtiter plate from the same supplier. Subsequently, 2 μL of Bub1 (the final concentration of Bub1 was adjusted depending on the activity of the enzyme lot in order to be within the linear dynamic range of the assay: typically ˜200 ng/mL were used) in aqueous assay buffer [50 mM Tris/HCl pH 7.5, 10 mM magnesium chloride (MgCl2), 200 mM potassium chloride (KCl), 1.0 mM dithiothreitol (DTT), 0.1 mM sodium ortho-vanadate, 1% (v/v) glycerol, 0.01% (w/v) bovine serum albumine (BSA), 0.005% (v/v) Trition X-100 (Sigma), 1× Complete EDTA-free protease inhibitor mixture (Roche)] were added to the compounds in the test plate and the mixture was incubated for 15 min at 22° C. to allow pre-equilibration of the putative enzyme-inhibitor complexes before the start of the kinase reaction, which was initiated by the addition of 3 μL 1.67-fold concentrated solution (in assay buffer) of adenosine-tri-phosphate (ATP, 10 μM final concentration) and peptide substrate (1 μM final concentration). The resulting mixture (5 μL final volume) was incubated at 22° C. during 60 min, and the reaction was stopped by the addition of 5 μL of an aqueous EDTA-solution (50 mM EDTA, in 100 mM HEPES pH 7.5 and 0.2% (w/v) bovine serum albumin) which also contained the TR-FRET detection reagents (0.2 μM streptavidin-XL665 [Cisbio Bioassays, Codolet, France] and 1 nM anti-phosho-Serine antibody [Merck Millipore, cat. #35-001] and 0.4 nM LANCE EU-W1024 labeled anti-mouse IgG antibody [Perkin-Elmer, product no. AD0077, alternatively a Terbium-cryptate-labeled anti-mouse IgG antibody from Cisbio Bioassays can be used]). The stopped reaction mixture was further incubated 1 h at 22° C. in order to allow the formation of complexes between peptides and detection reagents. Subsequently, the amount of product was evaluated by measurement of the resonance energy transfer from the Eu-chelate-antibody complex recognizing the Phosphoserine residue to the streptavidin-XL665 bound to the biotin moiety of the peptide. To this end, the fluorescence emissions at 620 nm and 665 nm after excitation at 330-350 nm were measured in GTR-FRET plate reader, e.g. a Rubystar or Pherastar (both from BMG Labtechnologies, Offenburg, Germany) or a Viewlux (Perkin-Elmer) and the ratio of the emissions (665 nm/622 nm) was taken as indicator for the amount of phosphorylated substrate. The data were normalised using two sets of (typically 32-) control wells for high- (=enzyme reaction without inhibitor=0%=Minimum inhibition) and low- (=all assay components without enzyme=100%=Maximum inhibition) Bub1 activity. IC50 values were calculated by fitting the normalized inhibition data to a 4-parameter logistic equation (Minimum, Maximum, IC50, Hill; Y=Max+(Min−Max)/(1+(X/IC50)Hill)).

[2] = test system: HeLa cell line; test: Proliferation assay (crystal violet staining); format: cell-based; settings: Homo sapiens, 96 h, 4 days incubation, range 0.001-10 μM, median, read-out: Biological Assay 2: Proliferation assay (HeLa cell line) median IC50
Protocol: Cultivated tumor cells (cells were ordered from ATCC, except HeLa-MaTu and HeLa-MaTu-ADR, which were ordered from EPO-GmbH, Berlin) were plated at a density of 1000 to 5000 cells/well, depending on the growth rate of the respective cell line, in a 96-well multititer plate in 200 μL of their respective growth medium supplemented 10% fetal calf serum. After 24 h, the cells of one plate (zero-point plate) were stained with crystal violet (see below), while the medium of the other plates was replaced by fresh culture medium (200 μL), to which the test substances were added in various concentrations (0 μM, as well as in the range of 0.001-10 μM; the final concentration of the solvent DMSO was 0.5%). The cells were incubated for 4 days in the presence of test substances. Cell proliferation was determined by staining the cells with crystal violet: the cells were fixed by adding 20 μL/measuring point of an 11% glutaric aldehyde solution for 15 min at rt. After three washing cycles of the fixed cells with water, the plates were dried at rt. The cells were stained by adding 100 μL/measuring point of a 0.1% crystal violet solution (pH 3.0). After three washing cycles of the stained cells with water, the plates were dried at rt. The dye was dissolved by adding 100 μL/measuring point of a 10% acetic acid solution. Absorbtion was determined by photometry at a wavelength of 595 nm. The change of cell number, in percent, was calculated by normalization of the measured values to the aborbtion values of the zero-point plate (=0%) and the absorbtion of the untreated (0 μm) cells (=100%). The IC50 values were determined by means of a 4 parameter fit.

T1 sequence (O43683 704-1085): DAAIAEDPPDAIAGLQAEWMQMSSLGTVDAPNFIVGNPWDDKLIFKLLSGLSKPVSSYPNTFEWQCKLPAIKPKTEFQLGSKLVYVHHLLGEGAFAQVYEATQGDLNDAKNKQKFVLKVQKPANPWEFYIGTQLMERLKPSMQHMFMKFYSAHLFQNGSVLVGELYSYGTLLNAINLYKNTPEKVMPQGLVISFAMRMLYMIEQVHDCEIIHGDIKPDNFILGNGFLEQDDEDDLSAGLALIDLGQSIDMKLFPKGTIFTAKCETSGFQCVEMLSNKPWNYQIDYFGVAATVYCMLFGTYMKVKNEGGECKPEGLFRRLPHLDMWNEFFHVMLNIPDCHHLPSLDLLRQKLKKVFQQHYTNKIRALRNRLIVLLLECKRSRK

Structure (SMILES) | IC50 [1] [nM] | IC50 [2] [nM]
COc1ccc(Cn2nc(-c3ncc(O)c(Nc4ccncc4)n3)c3c2CCC3)cc1 [Example 2-2-3, 2-[1-(4-methoxy-benzyl)-1,4,5,6-tetrahydrocyclopenta [c]pyrazol-3-yl]-4-(pyridin-4-ylamino) pyrimidin-5-ol] | 100 | ≥ 10000
CCOc1cc(F)c(Cn2nc(-c3ncc(OCCN(C)C)c(Nc4ccncc4)n3)c3c2CCC3)c(F)c1 [Example 2-3-1, 5-[2-(dimethylamino)ethoxy]-2-[1-(4-ethoxy-2,6-difluorobenzyl)-1,4,5,6-tetrahydrocyclopenta[c]pyrazol-3-yl]-N-(pyridin-4-yl)pyrimidin-4-amine] | 9 | 1000
CCOc1cc(F)c(Cn2nc(-c3ncc(OCC4(CO)COC4)c(Nc4ccncc4)n3)c3c2CCC3)c(F)c1 [Example 2-3-2, {3-[({2-[1-(4-ethoxy-2,6-difluoro-benzyl)-1,4,5,6-tetrahydrocyclopenta [c]pyrazol-3-yl]-4-(pyridin-4-ylamino)pyrimidin-5-yl}oxy)methyl]oxetan-3-yl}methanol] | 6 | ≥ 10000
CCOc1cc(F)c(Cn2nc(-c3ncc(OCCN4CCCC4)c(Nc4ccncc4)n3)c3c2CCC3)c(F)c1 [Example 2-3-3, 2-[1-(4-ethoxy-2,6-difluoro-benzyl)-1,4,5,6-tetrahydrocyclopenta [c]pyrazol-3-yl]-N-(pyridin-4-yl)-5-[2-(pyrrolidin-1-yl)ethoxy] pyrimidin-4-amine] | 20 | 1000
CCOC(=O)c1cnccc1Nc1nc(-c2nn(Cc3ccccc3F)c3c2CCC3)ncc1OCC1(CO)COC1 [Example 2-3-4, ethyl 4-[(2-[1-(2-fluoro-benzyl)-1,4,5,6-tetrahydrocyclopenta [c]pyrazol-3-yl]-5-{[3-(hydroxymethyl)oxetan-3-yl]methoxy}pyrimidin-4-yl)amino] nicotinate] | 40 | ≥ 10000
N#Cc1cnccc1Nc1nc(-c2nn(Cc3ccccc3F)c3c2CCC3)ncc1OCC1(CO)COC1 [Example 2-3-5, 4-[(2-[1-(2-fluoro-benzyl)-1,4,5,6-tetrahydrocyclopenta [c]pyrazol-3-yl]-5-{[3-(hydroxymethyl)oxetan-3-yl]methoxy}pyrimidin-4-yl)amino] nicotinonitrile] | 40 | 4000
CS(=O)(=O)CCCOc1cnc(-c2nn(Cc3ccccc3F)c3c2CCC3)nc1Nc1ccncc1C(N)=O [Example 2-3-9, 4-({2-[1-(2-fluoro-benzyl)-1,4,5,6-tetrahydrocyclopenta [c]pyrazol-3-yl]-5-[3-(methyl-sulfonyl)propoxy]pyrimidin-4-yl}amino) nicotinamide] | 100 | ≥ 10000
CCOc1cc(F)c(Cn2nc(-c3ncc(O)c(N(CCN(C)C)c4ccncc4)n3)c3c2CCC3)c(F)c1 [Example 2-4-1, 4-{[2-(dimethylamino)ethyl](pyridin-4-yl)amino}-2-[1-(4-ethoxy-2,6-difluorobenzyl)-1,4,5,6-tetrahydrocyclopenta[c]pyrazol-3-yl]pyrimidin-5-ol] | 200 | ≥ 10000
CCOc1cc(F)c(Cn2nc(-c3ncc(O)c(N(CCN4CCCC4)c4ccncc4)n3)c3c2CCC3)c(F)c1 [Example 2-4-2, 2-[1-(4-ethoxy-2,6-difluoro-benzyl)-1,4,5,6-tetrahydrocyclopenta [c]pyrazol-3-yl]-4-{pyridin-4-yl[2-(pyrrolidin-1-yl)ethyl]amino} pyrimidin-5-ol] | 900 | ≥ 10000
COc1cnc(-c2nn(Cc3ccccc3F)c3c2CCC3)nc1Nc1ccncc1C(N)=O [Example 2-5-1, 4-({2-[1-(2-fluorobenzyl)-1,4,5,6-tetrahydrocyclopenta[c]pyrazol-3-yl]-5-methoxypyrimidin-4-yl}amino)nicotinamide] | 10 | ≥ 10000
CCOC(=O)c1cnccc1Nc1nc(-c2nn(Cc3ccccc3F)c3c2CCC3)ncc1O [Example 2-8-1, ethyl 4-({2-[1-(2-fluorobenzyl)-1,4,5,6-tetrahydrocyclopenta[c]pyrazol-3-yl]-5-hydroxypyrimidin-4-yl}amino)nicotinate] | 30 | ≥ 10000
NC(=O)c1cnccc1Nc1nc(-c2nn(Cc3ccccc3F)c3c2CCC3)ncc1OCCO [Example 2-10-1, 4-({2-[1-(2-fluorobenzyl)-1,4,5,6-tetrahydrocyclopenta[c]pyrazol-3-yl]-5-(2-hydroxyethoxyl)pyrimidin-4-yl}amino)nicotinamide] | 70 | 50000
NC(=O)c1cnccc1N(CCO)c1nc(-c2nn(Cc3ccccc3F)c3c2CCC3)ncc1OCCO [Example 2-10-2, 4-[{2-[1-(2-fluoro-benzyl)-1,4,5,6-tetrahydrocyclopenta [c]pyrazol-3-yl]-5-(2-hydroxy-ethoxy)pyrimidin-4-yl}(2-hydroxy-ethyl)amino] nicotinamide] | 2000 | ≥ 10000
N#Cc1cnccc1Nc1nc(-c2nn(Cc3ccccc3F)c3c2CCC3)ncc1OCCO [Example 2-11-1, 4-({2-[1-(2-fluorobenzyl)-1,4,5,6-tetrahydrocyclopenta[c]pyrazol-3-yl]-5-(2-hydroxyethoxyl)pyrimidin-4-yl}amino)nicotinonitrile] | 400 | ≥ 10000
CCOc1cc(F)c(Cn2nc(-c3ncc(OCCO)c(Nc4ccncc4)n3)c3c2CCC3)c(F)c1 [Example 2-11-2, 2-({2-[1-(4-ethoxy-2,6-difluoro-benzyl)-1,4,5,6-tetrahydrocyclopenta [c]pyrazol-3-yl]-4-(pyridin-4-ylamino)pyrimidin-5-yl}oxy) ethanol] | 4 | 4000
CS(=O)(=O)CCOc1cnc(-c2nn(Cc3ccccc3F)c3c2CCC3)nc1Nc1ccncc1C(N)=O [Example 2-13-1, 4-({2-[1-(2-fluorobenzyl)-1,4,5,6-tetrahydrocyclopenta[c]pyrazol-3-yl]-5-[2-(methylsulfonyl)ethoxy]pyrimidin-4-yl}amino)nicotinamide] | 30 | ≥ 10000

— patent publication US9416125B2, “Substituted cycloalkenopyrazoles as BUB1 inhibitors for the treatment of cancer” (BAYER PHARMA AKTIENGESELLSCHAFT, priority 2012, dated 2016)
